Reference: patent US20250171495A1, “MUTLI-TARGETED SERINE PROTEASE INHIBITORS FOR TREATMENT OF CANCER AND VIRAL INFECTION” (Washington University, priority 2023, published 2025)
Where “and” joins values, the source holds several entries; their conditions need not be identical. Identical values can stand only once.

Key:
Assay type in all cases: biochemical
matriptase = molecular target: T1, matriptase (Homo sapiens, UniProt Q9Y5Y6); assay: HyCoSuL P4-P2 substrate specificity screening, matriptase; conditions: for P2 Position Substrate Activity for matriptase (percent substrate cleavage/proteolysis): residue fixed at P2 position; for P2 Position Substrate Activity for matriptase (percent substrate cleavage/proteolysis) / P3 Position Substrate Activity for matriptase (percent substrate cleavage/proteolysis) / P4 Position Substrate Activity for matriptase (percent substrate cleavage/proteolysis): P1-Arg HyCoSuL, 100 μM, best recognized amino acid set to 100%; for P3 Position Various Amino Acids Substrate Activity, matriptase (percent substrate cleavage/proteolysis): residue fixed at P3 position of substrate library; for P3 Position Substrate Activity for matriptase (percent substrate cleavage/proteolysis): residue fixed at P3 position; for P4 Position Various Amino Acids Substrate Activity, matriptase (percent substrate proteolysis/cleavage): residue fixed at P4 position of substrate library; for P4 Position Substrate Activity for matriptase (percent substrate cleavage/proteolysis): residue fixed at P4 position
T1 sequence (Q9Y5Y6 1-855): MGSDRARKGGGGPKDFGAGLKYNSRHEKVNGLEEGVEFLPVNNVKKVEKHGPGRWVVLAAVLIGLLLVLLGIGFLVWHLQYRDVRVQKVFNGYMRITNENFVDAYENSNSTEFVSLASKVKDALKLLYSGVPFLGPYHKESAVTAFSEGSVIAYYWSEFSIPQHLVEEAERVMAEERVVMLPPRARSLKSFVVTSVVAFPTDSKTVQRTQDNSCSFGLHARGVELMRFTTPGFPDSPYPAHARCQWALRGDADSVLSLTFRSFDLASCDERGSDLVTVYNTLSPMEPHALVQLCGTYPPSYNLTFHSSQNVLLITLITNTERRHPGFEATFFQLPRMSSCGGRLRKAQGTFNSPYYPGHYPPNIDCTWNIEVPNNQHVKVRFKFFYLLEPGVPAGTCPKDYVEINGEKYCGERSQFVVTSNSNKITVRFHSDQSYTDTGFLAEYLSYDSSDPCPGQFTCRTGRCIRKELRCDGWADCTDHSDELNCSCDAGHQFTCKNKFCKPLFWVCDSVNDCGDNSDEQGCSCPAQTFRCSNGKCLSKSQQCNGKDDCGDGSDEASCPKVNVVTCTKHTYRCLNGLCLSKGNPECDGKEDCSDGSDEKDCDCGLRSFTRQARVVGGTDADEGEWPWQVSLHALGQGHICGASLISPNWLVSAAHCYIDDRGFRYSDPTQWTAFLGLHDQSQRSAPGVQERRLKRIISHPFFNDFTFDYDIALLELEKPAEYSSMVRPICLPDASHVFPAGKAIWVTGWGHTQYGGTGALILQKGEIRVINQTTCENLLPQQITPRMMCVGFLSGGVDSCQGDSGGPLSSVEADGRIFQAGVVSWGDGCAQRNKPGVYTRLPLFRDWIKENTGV

HGFA = molecular target: T2, HGFA (Homo sapiens, UniProt Q04756); assay: HyCoSuL P4-P2 substrate specificity screening, HGFA; conditions: for P2 Position Substrate Activity for HGFA (percent substrate cleavage/proteolysis): residue fixed at P2 position; for P2 Position Substrate Activity for HGFA (percent substrate cleavage/proteolysis) / P3 Position Substrate Activity for HGFA (percent substrate cleavage/proteolysis) / P4 Position Substrate Activity for HGFA (percent substrate cleavage/proteolysis): P1-Arg HyCoSuL, 100 μM, best recognized amino acid set to 100%; for P3 Position Substrate Activity for HGFA (percent substrate cleavage/proteolysis): residue fixed at P3 position; for P4 Position Substrate Activity for HGFA (percent substrate cleavage/proteolysis): residue fixed at P4 position; for P4 Position Various Amino Acids Substrate Activity, HGFA (percent substrate proteolysis/cleavage): residue fixed at P4 position of substrate library; for P3 Position Various Amino Acids Substrate Activity, HGFA (percent substrate cleavage/proteolysis): residue fixed at P3 position of substrate library
T2 sequence (Q04756 373-655): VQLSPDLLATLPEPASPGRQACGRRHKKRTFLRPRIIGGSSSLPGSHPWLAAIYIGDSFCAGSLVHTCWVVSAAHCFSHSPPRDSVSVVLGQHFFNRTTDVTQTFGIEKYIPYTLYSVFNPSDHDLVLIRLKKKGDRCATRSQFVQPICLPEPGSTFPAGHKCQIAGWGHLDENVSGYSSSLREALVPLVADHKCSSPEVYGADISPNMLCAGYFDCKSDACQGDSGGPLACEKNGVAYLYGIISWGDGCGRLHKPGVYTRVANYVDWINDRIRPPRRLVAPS

TMPRSS2 = TMPRSS2 (Homo sapiens, UniProt O15393); assay: PS-SCL / HyCoSuL substrate specificity screening, TMPRSS2; conditions: for P2 Position Substrate Activity for TMPRSS2 (percent substrate cleavage/proteolysis): residue fixed at P2 position of substrate library; for P2 Position Substrate Activity for TMPRSS2 (percent substrate cleavage/proteolysis) / P3 Position Substrate Activity for TMPRSS2 (percent substrate cleavage/proteolysis) / P4 Position Substrate Activity for TMPRSS2 (percent substrate cleavage/proteolysis): best recognized amino acid set to 100%; for P3 Position Substrate Activity for TMPRSS2 (percent substrate cleavage/proteolysis) / P3 Position Various Amino Acids Substrate Activity, TMPRSS2 (percent substrate cleavage/proteolysis): residue fixed at P3 position of substrate library; for P4 Position Substrate Activity for TMPRSS2 (percent substrate cleavage/proteolysis) / P4 Position Various Amino Acids Substrate Activity, TMPRSS2 (percent substrate proteolysis/cleavage): residue fixed at P4 position of substrate library
hepsin = molecular target: T3, hepsin (Homo sapiens, UniProt P05981); assay: HyCoSuL P4-P2 substrate specificity screening, hepsin; conditions: for P2 Position Substrate Activity for hepsin (percent substrate cleavage/proteolysis): residue fixed at P2 position; for P2 Position Substrate Activity for hepsin (percent substrate cleavage/proteolysis) / P3 Position Substrate Activity for hepsin (percent substrate cleavage/proteolysis) / P4 Position Substrate Activity for hepsin (percent substrate cleavage/proteolysis): P1-Arg HyCoSuL, 100 μM, best recognized amino acid set to 100%; for P3 Position Substrate Activity for hepsin (percent substrate cleavage/proteolysis): residue fixed at P3 position; for P4 Position Substrate Activity for hepsin (percent substrate cleavage/proteolysis): residue fixed at P4 position; for P4 Position Various Amino Acids Substrate Activity, hepsin (percent substrate proteolysis/cleavage): residue fixed at P4 position of substrate library; for P3 Position Various Amino Acids Substrate Activity, hepsin (percent substrate cleavage/proteolysis): residue fixed at P3 position of substrate library
T3 construct: purchased R&D Systems 4776-SE-010
T3 sequence (P05981 163-417 limits assumed): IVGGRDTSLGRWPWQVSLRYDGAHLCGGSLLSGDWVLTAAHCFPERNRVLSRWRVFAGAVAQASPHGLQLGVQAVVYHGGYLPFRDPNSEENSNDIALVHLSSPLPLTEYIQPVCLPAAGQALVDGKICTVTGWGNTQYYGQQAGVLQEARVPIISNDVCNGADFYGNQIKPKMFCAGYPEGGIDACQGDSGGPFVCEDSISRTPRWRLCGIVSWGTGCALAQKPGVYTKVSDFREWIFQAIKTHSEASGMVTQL
T3 sequence (P05981 1-162 partner limits assumed): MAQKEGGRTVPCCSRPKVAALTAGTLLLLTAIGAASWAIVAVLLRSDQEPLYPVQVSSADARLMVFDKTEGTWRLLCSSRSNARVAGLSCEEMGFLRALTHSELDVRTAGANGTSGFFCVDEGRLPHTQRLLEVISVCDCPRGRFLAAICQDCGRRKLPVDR

Sequence of TMPRSS2 (O15393 whole entry): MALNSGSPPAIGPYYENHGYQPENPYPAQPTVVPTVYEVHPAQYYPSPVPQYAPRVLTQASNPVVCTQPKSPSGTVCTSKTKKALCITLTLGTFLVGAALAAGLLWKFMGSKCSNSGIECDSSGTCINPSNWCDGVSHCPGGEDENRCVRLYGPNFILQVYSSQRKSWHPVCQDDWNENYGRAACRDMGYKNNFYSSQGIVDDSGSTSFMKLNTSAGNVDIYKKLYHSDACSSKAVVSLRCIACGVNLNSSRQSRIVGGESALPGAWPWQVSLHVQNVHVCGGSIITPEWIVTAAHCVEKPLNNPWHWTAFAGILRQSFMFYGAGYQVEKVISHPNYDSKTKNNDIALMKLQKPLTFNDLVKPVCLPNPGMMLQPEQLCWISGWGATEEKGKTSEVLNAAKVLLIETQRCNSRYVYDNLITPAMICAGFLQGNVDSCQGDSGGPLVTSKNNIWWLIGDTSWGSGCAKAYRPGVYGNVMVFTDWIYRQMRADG

Row | Substance | P2 Position Substrate Activity for matriptase (percent substrate cleavage/proteolysis) (matriptase) [%] | P3 Position Various Amino Acids Substrate Activity, matriptase (percent substrate cleavage/proteolysis) (matriptase) [%] | P3 Position Substrate Activity for matriptase (percent substrate cleavage/proteolysis) (matriptase) | P4 Position Various Amino Acids Substrate Activity, matriptase (percent substrate proteolysis/cleavage) (matriptase) [%] | P4 Position Substrate Activity for matriptase (percent substrate cleavage/proteolysis) (matriptase) [%] | P2 Position Substrate Activity for HGFA (percent substrate cleavage/proteolysis) (HGFA) [%] | P3 Position Substrate Activity for HGFA (percent substrate cleavage/proteolysis) (HGFA) [%] | P4 Position Substrate Activity for HGFA (percent substrate cleavage/proteolysis) (HGFA) [%] | P2 Position Substrate Activity for TMPRSS2 (percent substrate cleavage/proteolysis) (TMPRSS2) [%] | P3 Position Substrate Activity for TMPRSS2 (percent substrate cleavage/proteolysis) (TMPRSS2) [%] | P4 Position Substrate Activity for TMPRSS2 (percent substrate cleavage/proteolysis) (TMPRSS2) [%] | P2 Position Substrate Activity for hepsin (percent substrate cleavage/proteolysis) (hepsin) [%] | P3 Position Substrate Activity for hepsin (percent substrate cleavage/proteolysis) (hepsin) [%] | P4 Position Substrate Activity for hepsin (percent substrate cleavage/proteolysis) (hepsin) [%] | P4 Position Various Amino Acids Substrate Activity, HGFA (percent substrate proteolysis/cleavage) (HGFA) [%] | P4 Position Various Amino Acids Substrate Activity, TMPRSS2 (percent substrate proteolysis/cleavage) (TMPRSS2) [%] | P4 Position Various Amino Acids Substrate Activity, hepsin (percent substrate proteolysis/cleavage) (hepsin) [%] | P3 Position Various Amino Acids Substrate Activity, HGFA (percent substrate cleavage/proteolysis) (HGFA) [%] | P3 Position Various Amino Acids Substrate Activity, TMPRSS2 (percent substrate cleavage/proteolysis) (TMPRSS2) [%] | P3 Position Various Amino Acids Substrate Activity, hepsin (percent substrate cleavage/proteolysis) (hepsin) [%]
1 | L-Lys | 6 | 81 | 76.43% and 80.67% | 75 | 75.49 | 1.04 | 44.63 | 18.29 | 3.79 | 27.86 | 14.11 | 46.70 | 80.71 | 75.43 | – | – | – | – | – | –
2 | L-Met(O) | 1 | 52 | 51.68% | 10 | – | 1.68 | 16.63 | – | 0.00 | 57.41 | – | 11.40 | 68.16 | – | 6.64 | 24.40 | 22.86 | – | – | –
3 | L-Nle | 13 | 34 | – | 34 | – | 45.52 | – | – | 11.80 | – | – | 62.04 | – | – | 11.76 | 56.06 | 40.93 | 19.15 | 38.11 | 24.09
4 | L-Nva | 11 | 25 | – | 30 | – | 39.80 | – | – | 13.88 | – | – | 58.40 | – | – | 11.78 | 54.45 | 41.99 | 17.60 | 38.62 | 25.85
5 | L-Orn | 4 | 74 | 73.75% and 62.39% | 82 | 82.42 | 0.00 | 54.04 | 20.23 | 0.00 | 22.76 | 12.33 | 78.48 | 79.70 | 84.52 | – | – | – | – | – | –
6 | L-Phe | 39 | 19 | – | 14 | – | 16.60 | – | – | 95.60 | – | – | 25.22 | – | – | 9.42 | 31.64 | 30.80 | 13.51 | 14.74 | 2.91
7 | L-Pro | 22 | 2 | – | 40 | – | 2.21 | – | – | 16.87 | – | – | 13.10 | – | – | 10.30 | 40.11 | 56.00 | 2.04 | 0.00 | 2.09
8 | L-Ser | 28 | 33 | – | 19 | – | 3.24 | – | – | 19.86 | – | – | 18.40 | – | – | 7.04 | 20.12 | 31.63 | 14.57 | 35.95 | 38.70
9 | L-Thr | 15 | 31 | – | 14 | – | 8.87 | – | – | 22.02 | – | – | 70.75 | – | – | 7.67 | 21.84 | 29.29 | 14.51 | 39.80 | 35.34
